Test results as given in patent US8778921B2, “Ansamycin hydroquinone compositions” (Infinity Pharmaceuticals, Inc., priority 2008, dated 2014).

Assays:
[1] = Stability at 40° C. and 75% relative humidity (percent purity by HPLC); type: physicochemical; conditions: 40° C. and 75% RH
Protocol: As used herein, a “stable composition” refers a composition comprising a sulfur-containing compound and a baseline amount of the compound of formula (I) (e.g., such as percent purity as measured by HPLC) such that, after being subjected to standard stability conditions (e.g., 40° C. and 75% relative humidity) for a specified period of time (e.g., 1 day, 2 days, 3 days, 4 days, 5 days, 7 days, 14 days, 21 days, or 30 days), at least about 80% of the original amount of the compound of formula (I) remains in the composition (i.e., has not oxidized to a compound of formula (II) or degraded to other by-products). In certain embodiments, at least about 85%, at least about 90%, at least about 91%, at least about 92%, at least about 93%, at least about 94%, or at least about 95% of the original amount of the hydroquinone compound of formula (I) remains in the composition for a specified period of time (e.g., 1 day, 2 days, 3 days, 4 days, 5 days, 7 days, 14 days, 21 days, or 30 days).
The stability data for 17-AG-HQ of Example 2 when kept at 40° C. and 75% relative humidity (RH) is depicted in FIG. 8 (see Table 2 for tabulated stability data). It was observed that 17-AG-HQ of Example 2 completely oxidizes to its quinone form in two weeks at 40° C. and […] as determined by HPLC.

[2] = Solubilizing or suspending agents: color change as indication of oxidation of 17-AG-HQ to 17-AG; type: physicochemical; conditions: argon headspace, checked up to one hour
Protocol: Solvents (2 mL) were pipetted out into labeled vials (Table 4). After purging the headspace with argon, the solvent vials were chilled at 4° C. for 1 hour. 17-AG-HQ of Example 2 (10 mg) was added each solvent vial and headspace was purged again with argon. The vials were checked for color change for up to one hour. Color change is an indication of stability: 17-AG-HQ is yellow while 17-AG is pink, thus a color change from yellow to pink would indicate oxidation of 17-AG-HQ to 17-AG. This listing of suitable solvents or suspending agents is also applicable for solvating/suspending the hydroquinones of Examples 3-6, 8, 10 or 11.

[3] = Table 12, formulations of 17-AG-HQ of Example 2

Compound: CO[C@H]1/C=C\C=C(/C)C(=O)Nc2cc(O)c(N)c(c2O)C[C@@H](C)C[C@H](OC)[C@H](O)[C@@H](C)/C=C(\C)[C@@H]1OC(N)=O [17-AG-HQ of Example 2, 17-amino-geldanamycin hydroquinone]
- time in which the hydroquinone completely oxidizes to its quinone form ([1]; determined by HPLC): two
- stability compared to 17-AG-HQ HCl salt of Example 1 ([1]; more prone to oxidation): less stable
- Percent Purity of 17-AG-HQ T = 0 Days ([1]; Table 2): 92%
- Percent Purity of 17-AG-HQ T = 2 Days ([1]; Table 2): 66%
- Percent Purity of 17-AG-HQ T = 5 Days ([1]; Table 2): 22%
- Percent Purity of 17-AG-HQ T = 14 Days ([1]; Table 2): 0%
- Percent Purity of 17-AG-HQ T = 30 Days ([1]; Table 2): 0%
- Percent Purity of 17-AG-HQ T = 0 Days [1, 3]: 92%
- Percent Purity of 17-AG-HQ T = 2 Days [1, 3]: 66%
- Percent Purity of 17-AG-HQ T = 5 Days [1, 3]: 22%
- Percent Purity of 17-AG-HQ T = 14 Days [1, 3]: 0%
- Percent Purity of 17-AG-HQ T = 30 Days [1, 3]: 0%
- Observations ([2]; Acetone, 10 mg in 2 mL solvent chilled at 4° C.): Dissolves with no color change
- Observations ([2]; DMSO:Acetonitrile:TFA (80:20:0.1), 10 mg in 2 mL solvent chilled at 4° C.): Dissolves with color change to rusty
- Observations ([2]; Dichloromethane, 10 mg in 2 mL solvent chilled at 4° C.): Dissolves with no color change
- Observations ([2]; Ethanol, 10 mg in 2 mL solvent chilled at 4° C.): Dissolves with no color change
- Observations ([2]; Methanol, 10 mg in 2 mL solvent chilled at 4° C.): Dissolves with color change to red
- Observations ([2]; Mineral Oil, 10 mg in 2 mL chilled at 4° C.): Suspends with no color change
- Observations ([2]; Propylene Glycol, 10 mg in 2 mL solvent chilled at 4° C.): Dissolves with color change to rusty
- Observations ([2]; Toluene, 10 mg in 2 mL solvent chilled at 4° C.): Dissolves with no color change
- Observations ([2]; Xylene, 10 mg in 2 mL solvent chilled at 4° C.): Dissolves with no color change
